Source: patent US5707989A, “Pyrimido[5,4-D]pyrimidines, medicaments comprising these compounds, their use and processes for their preparation” (Dr. Karl Thomae GmbH, priority 1994, dated 1998)

Tests used:
human EGF-R = biological target: T1, human EGF-R (Homo sapiens, UniProt P00533); assay: Inhibition of EGF-dependent proliferation of F/L-HERc cells; assay type: cell-based; conditions: human EGF 20 ng/ml, 48 hours
T1 construct: expressed in transfected cells; host or cells: F/L-HERc cells: murine IL-3-dependent line FDC-P1 infected with recombinant retrovirus (LXSN vector, GP+E86 packaging line) carrying human EGF-R cDNA
T1 sequence (P00533 25-1210): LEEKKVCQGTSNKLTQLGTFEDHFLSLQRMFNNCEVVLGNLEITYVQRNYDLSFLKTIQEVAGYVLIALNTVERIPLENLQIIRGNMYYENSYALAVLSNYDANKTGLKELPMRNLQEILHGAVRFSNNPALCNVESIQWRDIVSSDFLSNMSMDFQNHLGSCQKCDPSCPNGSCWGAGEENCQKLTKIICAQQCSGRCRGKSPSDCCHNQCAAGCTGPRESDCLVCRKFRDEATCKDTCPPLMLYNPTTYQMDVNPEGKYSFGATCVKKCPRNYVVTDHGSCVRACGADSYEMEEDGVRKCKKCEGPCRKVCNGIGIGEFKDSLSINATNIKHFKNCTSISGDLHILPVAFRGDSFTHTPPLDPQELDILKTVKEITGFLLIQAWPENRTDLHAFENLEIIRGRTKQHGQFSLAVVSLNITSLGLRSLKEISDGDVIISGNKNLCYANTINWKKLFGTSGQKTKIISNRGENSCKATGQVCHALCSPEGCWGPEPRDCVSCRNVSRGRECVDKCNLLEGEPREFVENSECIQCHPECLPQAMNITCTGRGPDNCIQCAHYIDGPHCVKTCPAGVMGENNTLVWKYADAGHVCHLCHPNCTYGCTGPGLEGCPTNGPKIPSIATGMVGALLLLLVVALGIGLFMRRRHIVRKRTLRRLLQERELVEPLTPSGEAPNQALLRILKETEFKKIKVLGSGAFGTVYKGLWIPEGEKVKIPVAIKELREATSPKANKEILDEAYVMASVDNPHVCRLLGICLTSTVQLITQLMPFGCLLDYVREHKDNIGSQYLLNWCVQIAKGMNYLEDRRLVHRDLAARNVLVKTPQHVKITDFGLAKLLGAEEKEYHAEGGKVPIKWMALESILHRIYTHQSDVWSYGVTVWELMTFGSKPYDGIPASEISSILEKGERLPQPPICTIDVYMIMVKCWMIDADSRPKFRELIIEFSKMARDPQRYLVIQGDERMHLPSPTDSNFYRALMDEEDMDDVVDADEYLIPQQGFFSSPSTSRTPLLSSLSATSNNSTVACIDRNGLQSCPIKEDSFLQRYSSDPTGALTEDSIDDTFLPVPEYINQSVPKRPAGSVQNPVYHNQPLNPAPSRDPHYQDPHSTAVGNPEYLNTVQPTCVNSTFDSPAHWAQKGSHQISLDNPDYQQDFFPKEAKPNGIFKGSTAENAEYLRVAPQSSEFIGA
Description: (§1) The inhibition of EGF-R-mediated signal transmission can be detected, for example, with cells which express human EGF-R, the survival and proliferation of which depend on stimulation by EGF or TGF-alpha. An interleukin-3 (IL-3)-dependent cell line of murine origin which was changed genetically such that it expresses functional human EGF-R was used here. The proliferation of these cells, called F/L-HERc, can therefore be stimulated either by murine IL-3 or by EGF (see von Ruden, T. et al. in EMBO J. 7, 2749-2756 (1988) and Pierce, J. H. et al. in Science 239, 628-631 (1988)).
(§2) The starting material used for the F/L-HERc cells was the cell line FDC-P1, the preparation of which has been described by Dexter, T. M. et al. in J. Exp. Med. 152, 1036-1047 (1980). Alternatively, however, other growth factor-dependent cells can also be used (see, for example, Pierce, J. H. et al. in Science 239, 628-631 (1988), Shibuya, H. et al. in Cell 70, 57-67 (1992) and Alexander, W. S. et al. in EMBO J. 10, 3683-3691 (1991)). Recombinant retroviruses were used for expression of the human EGF-R cDNA (see Ullrich, A. et al. in Nature 309, 418-425 (1984)), as described in yon Ruden, T. et al., EMBO J. 7, 2749-2756 (1988), with the difference that the retroviral vector LXSN (see Miller, A. D. et al. in BioTechniques 7, 980-990 (1989)) was used for expression of the EGF-R cDNA and the line GP+E86 (see Markowitz, D. et al. in J. Virol. 62, 1120-1124 (1988)) was used as the packing cell.
(§3) The test was carried out as follows:
(§4) F/L HERc cells were cultured at 37° C. and 5% CO2 in RPMI/1640 medium (BioWhittaker), supplemented with 10% foetal bovine serum (FCS, Boehringer Mannheim), 2 mM glutamine (BioWhittaker), standard antibiotics and 20 ng/ml of human EGF (Promega). For investigation of the inhibitory activity of the compounds according to the invention, 1.5×10^4 cells per well were cultured in triplicate in 96-well plates in the above medium (200 μl), proliferation of the cells being stimulated with either EGF (20 ng/ml) or murine IL-3. Culture stocks of the cell line X63/0 mIL-3 were used as the source for IL-3 (see Karasuyama, H. et al. in Eur. J. Immunol. 18, 97-104 (1988)). The compounds according to the invention were dissolved in 100% dimethyl sulphoxide (DMSO) and added to the cultures in various dilutions, the maximum DMSO concentration being 1%. The cultures were incubated at 37° C. for 48 hours.
(§5) To determine the inhibitory activity of the compounds according to the invention, the relative cell count was measured in OD units with Cell Titer 96™ Aqueous Non-Radioactive Cell Proliferation Assay (Promega). The relative cell count was calculated in per cent of the control (F/LHERc cells without inhibitor) and the active compound concentration which inhibits the proliferation of the cells to 50% (IC50) was deduced.

F/L-HERc cells = assay: Inhibition of IL-3-dependent proliferation of F/L-HERc cells; assay type: cell-based; conditions: Mus musculus, murine IL-3, 48 hours
Description: as §1, §2, §3, §4, §5

Row | SMILES | IC50 (human EGF-R) [nM] | IC50 (F/L-HERc cells) [nM]
1 | O[C@H]1CC[C@H](Nc2ncc3ncnc(Nc4ccc(F)c(Cl)c4)c3n2)CC1 [1(204), 4-[(3-Chloro-4-fluoro-phenyl)amino]-6-[(trans-4-hydroxycyclohexyl)-amino]-pyrimido[5,4-d]pyrimidine] | 0.8 | > 10000
2 | Cc1cccc(Nc2ncnc3cnc(N[C@H]4CC[C@H](C(=O)O)CC4)nc23)c1 [1(134), 4-[(3-Methylphenyl)amino]-6-[trans-4-carboxy-cyclohexylamino]-pyrimido[5,4-d]pyrimidine] | 13 | > 10000
3 | Fc1cc(F)cc(Nc2ncnc3cnc(NC4CC4)nc23)c1 [3(5), 4-[(3,5-Difluorophenyl)amino]-6-(cyclopropylamino)-pyrimido[5,4-d]pyrimidine] | 50 | > 3000
4 | Cc1cccc(Nc2ncnc3cnc(NC4CCN(C)CC4)nc23)c1 [1(62), 4-[(3-Methylphenyl)amino]-6-[(1-methyl-4-piperidinyl)amino]-pyrimido[5,4-d]pyrimidine] | 40 | > 1000
5 | COc1ncc2ncnc(Nc3cccc(C)c3)c2n1 [1(5), 4-[(3-Methylphenyl)amino]-6-methoxy-pyrimido[5,4-d]pyrimidine] | 1000 | > 10000
6 | CC(CO)(CO)Nc1ncc2ncnc(Nc3ccc(Cl)c(F)c3)c2n1 [1(183), 4-[(4-Chloro-3-fluoro-phenyl)amino]-6-(1,3-dihydroxy-2-methyl-2-propylamino)-pyrimido[5,4-d]pyrimidine] | 5 | > 20000
7 | Cc1cccc(Nc2ncnc3cnc(NCC4COCCOCCOCCOCCO4)nc23)c1 (stereo not shown) [1(197)] | 900 | 10000
8 | Cc1cccc(Nc2ncnc3cnc(NC4CCOCC4)nc23)c1 [1(170), 4-[(3-Methylphenyl)amino]-6-(4-tetrahydropyranylamino)-pyrimido[5,4-d]pyrimidine] | 15 | > 10000
9 | Cc1cccc(Nc2ncnc3cnc(N4CCN(c5ccccc5)CC4)nc23)c1 [1(3), 4-[(3-Methylphenyl)amino]-6-(1-phenyl-4-piperazinyl)-pyrimido[5,4-d]pyrimidine] | 2500 | > 10000
10 | CCN(CC)c1ncc2ncnc(Nc3cccc(C)c3)c2n1 [1(10), 4-[(3-Methylphenyl)amino]-6-(diethylamino)-pyrimido[5,4-d]pyrimidine] | 500 | > 10000
11 | Cc1cccc(Nc2ncnc3cnc(NC(C)CO)nc23)c1 (stereo not shown) [1(58), 4-[(3-Methylphenyl)amino]-6-(1-hydroxy-2-propylamino)pyrimido[5,4-d]pyrimidine] | 20 | > 3000
12 | Cc1cccc(Nc2ncnc3cnc(N[C@H]4CC[C@H](NC(=O)OC(C)(C)C)CC4)nc23)c1 [1(108), 4-[(3-Methylphenyl)amino]-6-[(trans-4-tert-butyloxycarbonylamino-cyclohexyl)amino]pyrimido[5,4-d]pyrimidine] | 50 | > 10000
13 | Cc1cccc(Nc2ncnc3cnc(N)nc23)c1 [1(13), 4-[(3-Methylphenyl)amino]-6-amino-pyrimido[5,4-d]pyrimidine] | 300 | > 10000
14 | Cc1cccc(Nc2ncnc3cnc(N4CCC(N)CC4)nc23)c1 [1(61), 4-[(3-Methylphenyl)amino]-6-(4-amino-1-piperidinyl)-pyrimido[5,4-d]pyrimidine] | 32 | 9000
15 | Nc1c(Cl)cc(Nc2ncnc3cnc(N[C@H]4CC[C@H](O)CC4)nc23)cc1Cl [1(207), 4-[(4-Amino-3,5-dichloro-phenyl)amino]-6-[(trans-4-hydroxycyclohexyl)-amino]-pyrimido[5,4-d]pyrimidine] | 2 | > 10000
16 | FC(F)(F)Oc1cccc(Nc2ncnc3cnc(NC4CC4)nc23)c1 [3(18), 4-[(3-Trifluoromethoxyphenyl)amino]-6-(cyclopropylamino)-pyrimido[5,4-d]pyrimidine] | 50 | > 3000
17 | Brc1cccc(Nc2ncnc3cncnc23)c1 [4(1), 4-[(3-Bromophenyl)amino]-pyrimido[5,4-d]pyrimidine] | 2000 | > 10000
